Common to all, as to test: growth of human tumour cells (NCI), 48 h
The subject of assay [1] is DU-145 prostate.
Assay [2] relates to HCT-15 colon.
Assay [3] has as its system IGROV1 ovarian.
The subject of assay [4] is K-562 leukemia.
For assay [5], the system named is LOX IMVI melanoma.
Assay [6] relates to NCI-H23 lung.
Assay [7] deals with OVCAR-4 ovarian.
For assay [8], the system named is SK-MEL-2 melanoma.
In assay [9] the test system is SNB-19 CNS.
Assay [10] relates to SW-620 colon.

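Following 48 hours of exposure in 96-well plates, responses at five concentrations were used to interpolate endpoints linearly. GI50 marks 50% less growth. At the TGI there is no net growth.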

As to `COC1CCN(C(=O)c2cc(Cc3n[nH]c(=O)c4ccccc34)ccc2F)CC1`, the GI50 in [1] was above 85.7 µM; in assay [2], above 100 µM; in assay [3] it was above 60.4 µM; in assay [4], above 89.1 µM; in assay [5], 58.5 µM; in assay [6] it was 51.7 µM. Further, the GI50 was 36.7 µM in assay [7], above 47.1 µM in assay [8], 57.6 µM in assay [9] and above 100 µM in [10]. Further, the TGI in assay [1], in assay [2], in assay [3], in [4], in assay [5] and in assay [6] was above 100 µM each time. The TGI in [7], in [8], in [9] and in assay [10] was above 100 µM each time.
`CC1COc2c(N3CCN(C)CC3)c(F)cc3c(=O)c(C(=O)O)cn1c23` (stereo not given): the GI50 is above 100 µM in [1]; above 100 µM in assay [2]; above 100 µM in assay [3]; 96.8 µM in [4]; above 100 µM in assay [5]; above 100 µM in assay [6]. Further, the GI50 in assay [7], in assay [8], in assay [9] and in assay [10] was above 100 µM in each case. Also, the TGI in assay [1], in [2], in assay [3], in assay [4], in [5] and in assay [6] was above 100 µM each time. Further, the TGI in assay [7], in assay [8], in assay [9] and in assay [10] was above 100 µM throughout.
For the compound `CS(=O)(=O)Nc1ccc(-c2cc(-c3ccccc3)cc(C(N)=O)c2N)cc1`, the GI50 was above 25 µM in assay [1]; above 22.2 µM in [2]; above 25 µM in assay [3]; 15.8 µM in [4]; above 25 µM in [5]; above 25 µM in assay [6]. The GI50 in assay [7] was above 21.6 µM; in assay [8], above 25 µM; in assay [9], above 25 µM; in [10], above 25 µM. Further, the TGI in [1], in assay [2], in assay [3], in [4], in assay [5] and in [6] was above 25 µM throughout. Also, the TGI in [7], in [8], in assay [9] and in [10] was above 25 µM each time.
In the case of `Cc1ccccc1-n1ncc(C(=O)c2ccccc2)c1N`, the GI50 in assay [1], in [2], in [3], in [4], in [5] and in assay [6] was above 25 µM throughout. In addition, the GI50 in assay [7], in assay [8], in assay [9] and in assay [10] was above 25 µM throughout. Further, the TGI in assay [1], in assay [2], in assay [3], in assay [4], in assay [5] and in assay [6] was above 25 µM throughout. Further, the TGI in assay [7], in assay [8], in assay [9] and in assay [10] was above 25 µM in each case.
In the case of `CC(C)(C)C(=O)OCOP(=O)(OCOC(=O)C(C)(C)C)C1CC(O)N(O)C1=O` (stereo not given), the GI50 in assay [1] is 6.7 µM; in assay [2], 4.28 µM; in assay [3] it was 2.83 µM; in [4], 3.66 µM; in assay [5], 3.35 µM; in [6], 3.67 µM. For the same compound, the GI50 is 17.5 µM in assay [7], 5.14 µM in assay [8], 2.37 µM in assay [9] and 4.46 µM in assay [10]. Moreover, the TGI in assay [1] is above 100 µM; in [2], above 100 µM; in [3], 9.72 µM; in [4] it was above 100 µM; in assay [5], above 100 µM; in [6], 25.3 µM. For the same compound, the TGI in assay [7] was above 100 µM; in assay [8] it was 92.1 µM; in [9] it was 7.33 µM; in assay [10], above 100 µM.
Turning to `Clc1ccc2c(c1)N(CCCN1CCCC1)c1ccccc1S2`, the GI50 in assay [1] is 8.61 µM; in [2] it was 3.72 µM; in assay [3], 7.84 µM; in [4], 2.77 µM; in assay [5], 2.5 µM; in assay [6], 10.2 µM. For the same compound, the GI50 in [7] is 7.82 µM; in assay [8] it was 10.8 µM; in [9], 9.63 µM; in assay [10], 10.7 µM. For the same compound, the TGI in [1] is 20.9 µM; in [2] it was 13.5 µM; in assay [3] it was 23.3 µM; in assay [4], 7.61 µM; in [5], 7.14 µM; in assay [6] it was 24 µM. Moreover, the TGI in [7] was found to be 21.2 µM; in assay [8], 23.9 µM; in [9], 28.1 µM; in [10], 25.8 µM.
Take `COc1cc(-c2nc3ccccc3s2)ccc1NC(=O)COc1ccc(Cl)cc1`: the GI50 in assay [1] is 8.28 µM; in [2], above 100 µM; in assay [3], 1.14 µM; in [4], 5.35 µM; in assay [5], 4.69 µM; in assay [6] it was 3.01 µM. The GI50 was 3.9 µM in assay [7], 3.52 µM in assay [8], 3.71 µM in assay [9] and 53.7 µM in assay [10]. The TGI in [1] is above 100 µM; in assay [2] it was above 100 µM; in assay [3], 21.2 µM; in assay [4] it was above 100 µM; in assay [5] it was above 100 µM; in assay [6], 25.6 µM. Besides, the TGI in assay [7] is 93.2 µM; in assay [8], 15.3 µM; in [9] it was 19.4 µM; in assay [10] it was above 100 µM.

Values taken from PubChem BioAssay (NCI).
